Measured values as given in ChEMBL document CHEMBL1201862, “PubChem BioAssay data set” (2004).
The source made the active and inactive calls.

Columns and labels:
[1] = biological target: FAD-linked sulfhydryl oxidase ALR (Homo sapiens, UniProt P55789); test: ALR-catalysed DTT oxidation blockers – biochemical, H2O2 detection, luminescence, cherry-pick, dose response (AID 493248)
[2] = NIH-3T3 fibroblast cytotoxicity, dose response, cytotoxicity control, cell-based, fluorescence, Alamar Blue, secondary assay (AID 2327); type: functional;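 further: NIH-3T3 mouse fibroblasts cultured with fluconazole at 8 µg/mL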
[3] = fluconazole-exposed Candida albicans growth modulators – fluorescence, retest, confirmation (AID 2467); type: functional, cell-based
Large T antigen = Large T antigen (Simian virus 40, UniProt P03070); type: functional, Betapolyomavirus macacae;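 further: Confirmatory-stage PubChem screen for compounds that inhibit SV40 T antigen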
Large T antigen, sequence (P03070 whole entry): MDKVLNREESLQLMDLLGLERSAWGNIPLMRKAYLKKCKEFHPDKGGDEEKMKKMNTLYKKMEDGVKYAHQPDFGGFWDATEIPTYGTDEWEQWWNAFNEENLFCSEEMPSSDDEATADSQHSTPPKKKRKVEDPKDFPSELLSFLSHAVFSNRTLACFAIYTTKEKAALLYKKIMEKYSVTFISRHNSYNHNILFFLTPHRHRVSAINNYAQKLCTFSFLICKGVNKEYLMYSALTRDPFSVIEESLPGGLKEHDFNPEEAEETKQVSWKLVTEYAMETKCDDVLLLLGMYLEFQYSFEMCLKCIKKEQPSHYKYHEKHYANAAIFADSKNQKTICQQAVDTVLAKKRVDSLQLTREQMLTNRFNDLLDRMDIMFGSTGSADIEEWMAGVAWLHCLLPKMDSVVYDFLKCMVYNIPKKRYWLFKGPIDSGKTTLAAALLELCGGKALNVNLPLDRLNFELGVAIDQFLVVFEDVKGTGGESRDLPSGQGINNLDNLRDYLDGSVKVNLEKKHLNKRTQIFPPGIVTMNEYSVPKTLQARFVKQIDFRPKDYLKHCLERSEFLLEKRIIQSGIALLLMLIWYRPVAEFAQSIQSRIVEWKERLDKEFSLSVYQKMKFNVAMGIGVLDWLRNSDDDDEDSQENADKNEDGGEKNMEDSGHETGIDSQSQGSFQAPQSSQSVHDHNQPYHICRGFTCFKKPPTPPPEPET

[4] = biological target: T1, Calpain-2 catalytic subunit (Sus scrofa, UniProt P43367); test: m-calpain protease blockers, concentration series – biochemical, fluorogenic peptide substrate, dose response (AID 1420); type: functional
T1 sequence (P43367 whole entry): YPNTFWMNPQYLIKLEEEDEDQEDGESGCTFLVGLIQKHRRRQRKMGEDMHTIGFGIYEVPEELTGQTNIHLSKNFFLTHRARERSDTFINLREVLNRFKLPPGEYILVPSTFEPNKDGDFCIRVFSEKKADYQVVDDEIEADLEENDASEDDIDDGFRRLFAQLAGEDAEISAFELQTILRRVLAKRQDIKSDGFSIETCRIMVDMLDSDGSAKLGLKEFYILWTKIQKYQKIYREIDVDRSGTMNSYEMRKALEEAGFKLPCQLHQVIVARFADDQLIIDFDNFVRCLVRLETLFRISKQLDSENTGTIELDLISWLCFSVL

[5] = Trypanosoma cruzi growth suppression in host cells – NIH3T3 host cells, beta-gal luminescence, confirmation (AID 2044); type: functional, cell-based;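 further: intracellular parasites grown in NIH/3T3 mouse fibroblasts as host cells; luminescent beta-galactosidase reporter signal from transgenic T. cruzi replicating inside host cells; inhibitors lower the luminescence signal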
[6] = NIH3T3 cell viability loss – ATP luminescence, mouse fibroblasts, counter-screen, dose response (AID 2010); type: functional, cell-based;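 further: cells exposed to compound for about 90 hours before reading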
[7] = biological target: T2, Carboxy-terminal domain RNA polymerase II polypeptide A small phosphatase 1 (Homo sapiens, UniProt Q9GZU7); test: CTDSP1 inhibitors, concentration-response, biochemical, absorbance readout, ultra-high-throughput screen actives (AID 540297); type: functional
T2 sequence (Q9GZU7 whole entry): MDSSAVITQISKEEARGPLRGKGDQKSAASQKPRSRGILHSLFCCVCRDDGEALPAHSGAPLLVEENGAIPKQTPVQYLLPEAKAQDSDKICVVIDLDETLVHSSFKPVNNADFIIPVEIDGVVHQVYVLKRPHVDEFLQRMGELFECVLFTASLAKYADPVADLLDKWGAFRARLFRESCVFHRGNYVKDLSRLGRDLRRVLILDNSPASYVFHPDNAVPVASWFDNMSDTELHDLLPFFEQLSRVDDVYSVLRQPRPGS

[8] = Luminescence Cell-Based Dose Confirmation HTS to Identify Activators of 5'UTR Stem-Loop Driven Alpha-Synuclein mRNA Translation in H4 Neuroglioblastoma Cells. [Related pubchem assays: 1829 (Project Summary), 1814 (Primary HTS)]; type: functional
[9] = Luminescence Cell-Based Dose Response HTS to Identify Activators of Luciferase Translation or Activity in H4 […] Cells. [Related pubchem assays: 1829 (Project Summary), 1814 (Primary HTS)]; type: functional
H4 = test: Luminescence Cell-Based Dose Response HTS to Identify Activators of 5'UTR Stem-Loop Driven Prion Protein mRNA Translation in H4 Neuroglioblastoma Cells. [Related pubchem assays: 1829 (Project Summary), 1814 (Primary HTS)]; type: functional; settings: Homo sapiens

FAD-linked sulfhydryl oxidase ALR, sequence (P55789 whole entry): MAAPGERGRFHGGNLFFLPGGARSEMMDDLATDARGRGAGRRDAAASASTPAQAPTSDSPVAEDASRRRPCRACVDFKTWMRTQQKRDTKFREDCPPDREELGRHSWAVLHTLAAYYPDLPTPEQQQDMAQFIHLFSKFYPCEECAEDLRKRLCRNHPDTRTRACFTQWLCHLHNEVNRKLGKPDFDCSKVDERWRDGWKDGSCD

CSCc1ccc(C(=O)NC(C)c2ccc(-n3ccnc3)cc2)cc1 (stereo not given)
AC50 [1]: 1.33 µM (active)

CCN(CC)C(=O)/C(=C/c1ccc2c(c1)OCO2)NC(=O)c1ccc(Br)cc1
EC50 [2]: > 150 µM (inactive) | EC50 [3]: 3.58 µM (active)

CCc1cc2c(Nc3ccc(O)cc3)nc(C)nc2s1
IC50 (Large T antigen): 23.7 µM (active)

O=C(CC1C(=O)NCCN1Cc1ccc(F)cc1)NCCN1CCCc2ccccc21 (stereo not given)
AC50 [1]: 3.16 µM (active)

COc1ccc([N+](=O)[O-])cc1NC(=O)CSc1ccc2ccccc2c1
IC50 [4]: 2.92 µM (not active)

CN(C)c1ccc(/C=C/c2cc[n+](C)cc2)cc1
EC50 [5]: 0.723 µM (active) | EC50 [6]: > 60 µM (not active) | AC50 [1]: 0.416 µM (active)

CCCCNC(=O)COC(=O)c1c2c(nc3ccccc13)CCC2
IC50 [7]: 9.63 µM (active)

CCOc1c(Br)cc(CNc2ccc(N3CCN(C(C)=O)CC3)cc2)cc1OC
IC50 (Large T antigen): 6.23 µM (active)

COc1c(Cl)cc(C(=O)Nc2ccccc2-c2ccccc2)cc1Cl
IC50 [4]: > 50 µM (not active)

CNC(=O)COC(=O)CNC(=O)c1cc(Cl)cc([N+](=O)[O-])c1
IC50 [4]: > 50 µM (not active)

CCN(CC)c1ccc(NC(=O)CSc2nc3nc(C)cc(C)c3c(=O)[nH]2)cc1
IC50 (Large T antigen): 10.2 µM (active)

CC1=C(C(=O)c2ccccc2)C(c2ccc(O)cc2)NC(S)=N1 (stereo not given)
IC50 (Large T antigen): > 100 µM (active)

CCCCCCCCC(=O)NNC(=O)c1c(O)c2ccccc2n(CC)c1=O
EC50 [2]: > 150 µM (inactive) | EC50 [3]: 2.96 µM (active)

Cc1cccc(Nc2ncccc2C(=O)NCc2cccs2)c1C
IC50 [4]: 14.4 µM (not active)

O=C(C1CCC(=O)N(C2CC2)C1)N1CCN(c2ccc(Cl)cc2)CC1 (stereo not given)
AC50 [1]: 15.8 µM (active)

CC(NC(=O)C(=O)N1CCCCC1)C(c1cccs1)N1CCN(c2ccccc2)CC1 (stereo not given)
AC50 [1]: 1.16 µM (active)

CCc1cc2c(=O)n(Cc3ccccc3)c(SC3CCOC3=O)nc2s1 (stereo not given)
IC50 [4]: 12.6 µM (not active)

c1cnc2c(OCc3nc4ccccc4[nH]3)cccc2c1
EC50 [8]: 0.396 µM (active) | EC50 [9]: 7.06 µM (active) | EC50 (H4): 5.66 µM (active) | IC50 [4]: 7.55 µM (not active)

O=C(Nc1ccnc(O)n1)c1sc2ccccc2c1Cl
IC50 [7]: 16.2 µM (active)

Cc1ccc(C(=O)N(Cc2ccccc2)C(C)(C)C)cc1C
IC50 [4]: 16.6 µM (not active)

Cc1c(C=O)c2ccccc2n1CC(=O)NC(C)c1ccccc1 (stereo not given)
IC50 [4]: > 50 µM (not active)

COc1ccc(Nc2ccc(Cl)cc2)c(C(=O)O)c1
IC50 (Large T antigen): 18 µM (active)

Cc1ccc(-c2nc3ccc(Cl)cc3c(=O)n2O)cc1
EC50 [2]: > 160 µM (inactive) | EC50 [3]: 1.58 µM (active)

CCCCN(CC)CCCN=C(S)Nc1ccc2nc3n(c(=O)c2c1)CCCCC3
EC50 [5]: 1.29 µM (active) | IC50 [4]: < 0.4 µM (not active) | EC50 [6]: > 60 µM (not active)

O=C1CSC(c2cccc(F)c2)N1c1ccccc1 (stereo not given)
AC50 [1]: 1.22 µM (active)
